According to patent US10829484B2, “Compounds and methods for kinase modulation, and indications therefor” (Plexxikon Inc., priority 2015, dated 2020):

Biological target: T1, BaF3-FLT3-ITD-D835V (Homo sapiens, UniProt P36888, INS600HVDFREYEYD/D835V, cells depend on it)
T1 sequence (P36888 with tags, fused parts or gaps INS600HVDFREYEYD/D835V): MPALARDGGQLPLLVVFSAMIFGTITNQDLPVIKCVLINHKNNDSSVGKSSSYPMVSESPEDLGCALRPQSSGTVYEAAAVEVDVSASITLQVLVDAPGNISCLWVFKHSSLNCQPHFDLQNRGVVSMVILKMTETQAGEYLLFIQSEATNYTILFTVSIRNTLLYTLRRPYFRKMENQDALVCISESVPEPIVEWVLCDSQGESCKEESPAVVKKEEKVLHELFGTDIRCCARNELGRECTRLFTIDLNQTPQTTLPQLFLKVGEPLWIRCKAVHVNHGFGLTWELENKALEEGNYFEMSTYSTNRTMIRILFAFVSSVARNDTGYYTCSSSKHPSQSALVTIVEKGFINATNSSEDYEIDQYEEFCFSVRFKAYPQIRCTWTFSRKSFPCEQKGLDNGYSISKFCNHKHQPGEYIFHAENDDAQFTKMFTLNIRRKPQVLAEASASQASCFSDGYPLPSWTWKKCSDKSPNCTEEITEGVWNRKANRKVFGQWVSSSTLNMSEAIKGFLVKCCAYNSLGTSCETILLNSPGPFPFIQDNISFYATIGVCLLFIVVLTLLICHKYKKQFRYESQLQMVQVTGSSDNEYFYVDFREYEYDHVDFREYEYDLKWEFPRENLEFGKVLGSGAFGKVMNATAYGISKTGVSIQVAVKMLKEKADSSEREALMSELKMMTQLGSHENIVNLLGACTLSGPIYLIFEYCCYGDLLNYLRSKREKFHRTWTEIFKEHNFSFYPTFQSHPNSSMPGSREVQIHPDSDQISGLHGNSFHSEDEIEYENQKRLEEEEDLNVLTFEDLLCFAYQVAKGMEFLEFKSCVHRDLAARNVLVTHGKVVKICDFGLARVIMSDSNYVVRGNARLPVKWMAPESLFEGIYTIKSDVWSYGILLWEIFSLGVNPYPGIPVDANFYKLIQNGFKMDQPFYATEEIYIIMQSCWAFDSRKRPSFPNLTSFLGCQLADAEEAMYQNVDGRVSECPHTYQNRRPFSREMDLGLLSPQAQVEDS
Test: CTB viability assay CS0048, BaF3-FLT3-ITD-D835V
Format: cell-based, murine
Settings: BaF3-FLT3-ITD-D835V cells, CellTiter Blue viability, 72 hours; read-out: Cell Assay: CS0048: BaF3-FLT3-ITD-D835V CTB:IC50
From the text: Gene constructs containing the human FLT3 sequences FLT3-ITD, FLT3-ITD-F691L, FLT3-ITD-D835V and FLT3-D835V were synthesized by reverse translation of the human protein sequences, with codons optimized for mammalian expression. Sequence of the internal tandem duplication (ITD) was based on the MV4-11 ITD sequence. Synthetic DNA constructs were cloned into the pMSCV puro retroviral vector (Clontech) and transfected into the EcoPack2-293 packaging cell line (Clontech) to generate retroviruses that contain the different FLT3 constructs. Viruses were transduced into the IL-3-dependent, murine […] cell line, Ba/F3, and selected for puromycin resistance and IL-3 independence. All cell lines were cloned by limiting dilution and clones were used for all subsequent cell assays. Overexpression of the FLT3 mutants in the Ba/F3 cells results in constitutive phosphorylation of the exogenous FLT3 protein, which is required for IL-3 independence.
Cell lines were serum starved overnight in media containing 0.5% FBS, plated at 15,000 cells/well in 96-well white-walled tissue culture plates, and 3-fold serial dilutions of test compounds of Formula I were added for 72 hours at 37° C. CellTiter Blue (CTB, Promega) was added and incubated for an additional 3 hours at 37° C. Fluorescence was read at 560 nm excitation, 590 nm emission. Wells with CTB+media only were used for background subtraction, and the fluorescence of compound-treated cells was normalized to the fluorescence of DMSO-treated cells. IC50s were determined using Igor Pro software. All compounds are assayed in duplicate cell plates.

| Compound | GI50 [nM] |
| --- | --- |
| CCn1nccc1Nc1ncc(-c2ccc(CC(=O)Nc3cc(C4(C(F)(F)F)CC4)on3)c(F)c2)cn1 [P-103, 2-[4-[2-[(2-ethylpyrazol-3-yl)amino]pyrimidin-5-yl]-2-fluorophenyl]-N-[5-[1-(trifluoromethyl)cyclopropyl]isoxazol-3-yl]acetamide] | 10 to 50 |
| Cn1cnc(Nc2ncc(-c3ccc(CC(=O)Nc4cc(C5(C(F)F)CC5)on4)c(F)c3)cn2)c1 [P-184, N-[5-[1-(difluoromethyl)cyclopropyl]isoxazol-3-yl]-2-[2-fluoro-4-[2-[(1-methylimidazol-4-yl)amino]pyrimidin-5-yl]phenyl] acetamide] | 10 to 50 |
| CC(O)c1nn(C)cc1Nc1ncc(-c2ccc(CC(=O)Nc3cc(C4(C(F)(F)F)CC4)on3)c(F)c2)cn1 (stereo not drawn) [P-114, 2-[2-fluoro-4-[2-[[3-(1-hydroxyethyl)-1-methylpyrazol-4-yl]amino]pyrimidin-5-yl]phenyl]-N-[5-[1-(trifluoromethyl)cyclopropyl]isoxazol-3-yl]acetamide] | 10 to 50 |
| Cc1nn(C)cc1Nc1ncc(-c2ccc(CC(=O)Nc3cc(C4(C(F)(F)F)CC4)on3)c(F)c2)c(Cl)n1 [P-157, 2-[4-[4-chloro-2-[(1,3-dimethylpyrazol-4-yl)amino]pyrimidin-5-yl]-2-fluoro-phenyl]-N-[5-[1-(trifluoromethyl)cyclopropyl]isoxazol-3-yl]acetamide] | 10 to 50 |
| COc1nn(C)cc1Nc1ncc(-c2ccc(CC(=O)Nc3cc(C4(C(F)(F)F)CC4)on3)c(F)c2)c(OC)n1 [P-123, 2-[2-fluoro-4-[4-methoxy-2-[(3-methoxy-1-methyl-pyrazol-4-yl)amino]pyrimidin-5-yl]phenyl]-N-[5-[1-(trifluoromethyl)cyclopropyl]isoxazol-3-yl]acetamide] | 10 to 50 |
| Cn1cc(Nc2ncc(-c3ccc(CC(=O)Nc4cc(C5(C(F)(F)F)CC5)on4)c(F)c3)cn2)c(C(F)(F)F)n1 [P-077, 2-[2-fluoro-4-[2-[[1-methyl-3-(trifluoromethyl)pyrazol-4-yl]amino]pyrimidin-5-yl]phenyl]-N-[5-[1-(trifluoromethyl)cyclopropyl]isoxazol-3-yl]acetamide] | 10 to 50 |
| Cn1nccc1Nc1ncc(-c2ccc(CC(=O)Nc3cc(C4(C(F)(F)F)CC4)on3)c(F)c2)cn1 [P-091, 2-[2-fluoro-4-[2-[(2-methylpyrazol-3-yl)amino]pyrimidin-5-yl]phenyl]-N-[5-[1-(trifluoromethyl)cyclopropyl]isoxazol-3-yl]acetamide] | 10 to 50 |
| CCn1cnc(Nc2ncc(-c3ccc(CC(=O)Nc4cc(C5(C(F)(F)F)CC5)on4)c(F)c3)cn2)c1 [P-068, 2-[4-[2-[(1-ethylimidazol-4-yl)amino]pyrimidin-5-yl]-2-fluorophenyl]-N-[5-[1-(trifluoromethyl)cyclopropyl]isoxazol-3-yl]acetamide] | 10 to 50 |
| COc1cc(Nc2ncc(-c3ccc(CC(=O)Nc4cc(C5(C(F)(F)F)CC5)on4)c(F)c3)cn2)n(C)n1 [P-164, 2-[2-fluoro-4-[2-[(5-methoxy-2-methyl-pyrazol-3-yl)amino]pyrimidin-5-yl]phenyl]-N-[5-[1-(trifluoromethyl)cyclopropyl]isoxazol-3-yl]acetamide] | 10 to 50 |
| COCCOc1nn(C)cc1Nc1ncc(-c2ccc(CC(=O)Nc3cc(C4(C(F)(F)F)CC4)on3)c(F)c2)cn1 [P-148, 2-[2-fluoro-4-[2-[[3-(2-methoxyethoxy)-1-methylpyrazol-4-yl]amino]pyrimidin-5-yl]phenyl]-N-[5-[1-(trifluoromethyl)cyclopropyl]isoxazol-3-yl]acetamide] | 10 to 50 |
| CCc1n[nH]cc1Nc1ncc(-c2ccc(CC(=O)Nc3cc(C4(C(F)(F)F)CC4)on3)c(F)c2)cn1 [P-214, 2-(4-(2-((3-ethyl-1H-pyrazol-4-yl)amino)pyrimidin-5-yl)-2-fluorophenyl)-N-(5-(1-(trifluoromethyl)cyclopropyl)isoxazol-3-yl)acetamide] | 10 to 50 |
| O=C(Cc1ccc(-c2cnc(Nc3ccccc3)cn2)cc1F)Nc1cc(C2(C(F)(F)F)CC2)on1 [P-005, 2-[4-(5-anilinopyrazin-2-yl)-2-fluorophenyl]-N-[5-[1-(trifluoromethyl)cyclopropyl]isoxazol-3-yl]acetamide] | 10 to 50 |
| Cn1cnc(Nc2ncc(-c3ccc(CC(=O)Nc4cc(C5(C)CC5)no4)c(F)c3)cn2)c1 [P-112, 2-[2-fluoro-4-[2-[(1-methylimidazol-4-yl)amino]pyrimidin-5-yl]phenyl]-N-[3-(1-methylcyclopropyl)isoxazol-5-yl]acetamide] | 10 to 50 |
| Cc1nn(C)cc1Nc1ncc(-c2ccc(CC(=O)Nc3cc(C4(C(F)(F)F)CC4)on3)c(F)c2)c(C)n1 [P-116, 2-[4-[2-[(1,3-dimethylpyrazol-4-yl)amino]-4-methyl-pyrimidin-5-yl]-2-fluorophenyl]-N-[5-[1-(trifluoromethyl)cyclopropyl]isoxazol-3-yl] acetamide] | 10 to 50 |
| O=C(Cc1ccc(-c2ccc(Nc3ccccc3)nc2)cc1F)Nc1cc(C2(C(F)(F)F)CC2)on1 [P-003, 2-[4-(6-anilino-3-pyridyl)-2-fluoro-phenyl]-N-[5-[1-(trifluoromethyl)cyclopropyl]isoxazol-3-yl]acetamide] | 10 to 50 |
| COc1nn(C2CC2)cc1Nc1ncc(-c2ccc(CC(=O)Nc3cc(C4(C(F)(F)F)CC4)on3)c(F)c2)c(OC)n1 [P-136, 2-[4-[2-[(1-cyclopropyl-3-methoxypyrazol-4-yl)amino]-4-methoxy-pyrimidin-5-yl]-2-fluorophenyl]-N-[5-[1-(trifluoromethyl)cyclopropyl]isoxazol-3-yl]acetamide] | 10 to 50 |
| COc1nn(C)cc1Nc1ncc(-c2ccc(CC(=O)Nc3cc(C4(C(F)(F)F)CC4)on3)c(F)c2)c(C)n1 [P-124, 2-[2-fluoro-4-[2-[(3-methoxy-1-methylpyrazol-4-yl)amino]-4-methyl-pyrimidin-5-yl]phenyl]-N-[5-[1-(trifluoromethyl)cyclopropyl]isoxazol-3-yl] acetamide] | 10 to 50 |
| Cc1cc(C(=O)N(C)C)ccc1Nc1ncc(-c2ccc(CC(=O)Nc3cc(C4(C(F)(F)F)CC4)on3)c(F)c2)cn1 [P-113, 4-[[5-[3-fluoro-4-[2-oxo-2-[[5-[1-(trifluoromethyl)cyclopropyl]isoxazol-3-yl]amino]ethyl]phenyl]pyrimidin-2-yl]amino]-N,N,3-trimethyl-benzamide] | 10 to 50 |
